Article PMC8224742, “Evaluation of 1β-Hydroxylation of Deoxycholic Acid as a Non-Invasive Urinary Biomarker of CYP3A Activity in the Assessment of Inhibition-Based Drug–Drug Interaction in Healthy Volunteers” (Journal of Personalized Medicine, 2021)
“Also recorded” adds a separate entry of the source. Read-outs that look alike come from different tables or passages of the source. Marks after values point to notes of the source that are not given here.

Experiments:
[1] = system: CYP3A; test: Oral MDZ (1.5 mg p.o.) plasma pharmacokinetics (MDZ and 1′-OH-MDZ) alone and after repeated inhibitor administration; settings: for 1’-OH-MDZ AUC0– (zero to infinity), MDZ alone / 1’-OH-MDZ AUClast, MDZ alone / 1’-OH-MDZ Cmax, MDZ alone / 1’-OH-MDZ T1/2, MDZ alone / 1’-OH-MDZ Tmax, MDZ alone / MDZ CL, MDZ alone: MDZ 1.5 mg p.o., geometric mean (90% CI)
Procedure: (§1) ITZ tablets (200 mg) were split equally in two, and 100 mg were given to subjects.
(§2) MDZ acted as a nested control in the evaluation of the endogenous urinary markers, and it was administered both orally (1.5 mg) and intravenously (i.v.; 1.0 mg). Participants were all treated the same way for the baseline and randomly split into 3 arms of 8–10 individuals each to evaluate the effect of the inhibitors. […] MDZ pharmacokinetic (PK) profiling and biomarker sampling was also conducted after the washout period and at the end of the study to determine whether enzyme activity returned to baseline levels. The subjects were their control. Treatment, washout and end of study values were compared with values at baseline.
(§3) Plasma concentrations of MDZ and its metabolite 1′-OH-MDZ were analysed using a validated LC-MS/MS method. Plasma samples were extracted using protein precipitation, where 300 µL of acetonitrile (ACN) containing 500 ng/mL diazepam as an internal standard (IS) was added to 100 µL of plasma. The mixture was then vortexed for 10 min, followed by centrifugation at 10,000× g for 5 min at a temperature of 4 °C. The supernatant was collected, and 5 µL were injected into the LC-MS/MS for analysis.
(§4) The mobile phase consisted of 10 mM ammonium formate in 5% methanol (MeOH) (A) and ACN (B). […] The column temperature was maintained at 40 °C. MDZ and 1′-OH-MDZ were detected on a Sciex 3200 mass spectrometer with a turbo ion spray interphase operated in positive ion mode at 5500 V, a temperature of 5000 °C; GS1 and GS2 at 50 and 60 psi, respectively; and a curtain gas flow of 25 psi. […] The quantification of the MDZ and 1′-OH-MDZ was performed using the Analyst software (version 1.2; Applied Biosystems).
(§5) Standard non-compartmental pharmacokinetic (PK) analysis was performed with the WinNolin program, version 4.1 (Pharsight Corp, Mountain View, CA, USA), using the linear up logarithmic down trapezoidal method. The plasma parameters that were assessed and used for the comparison with the urinary biomarker were MDZ clearance (MDZ CL) and the area under the plasma concentration-time curve (AUC) from zero to infinity (AUC0–inf) of MDZ. More PK parameters were evaluated for MDZ and 1′-OH-MDZ.
(§6) The difference between log-transformed treatment/baseline was calculated pairwise for each subject, as well as for their 90% confidence intervals (CIs). These differences and CIs were anti-log-transformed back for reporting purposes. The same analysis was performed for MDZ clearance and AUC0-inf before and after treatment for comparison.
(§7) The pharmacokinetic (PK) parameters of MDZ were performed by standard noncompartmental
(§8) methods using the WinNolin program, version 4.1 (Pharsight Corp, Mountain View, CA, USA).
(§9) were plotted as graphs of midazolam or 1-OH-midazolam concentration vs. time.

[2] = system: CYP3A; test: Intravenous MDZ (1.0 mg i.v.) plasma pharmacokinetics (MDZ and 1′-OH-MDZ) alone and after repeated inhibitor administration; settings: for 1’-OH-MDZ AUC0– (zero to infinity), MDZ alone / 1’-OH-MDZ AUClast, MDZ alone / 1’-OH-MDZ Cmax, MDZ alone / 1’-OH-MDZ T1/2, MDZ alone / 1’-OH-MDZ Tmax, MDZ alone: MDZ 1 mg i.v., geometric mean (90% CI)
Procedure: as §1, §2, §3, §4, §5, §6, §7, §8, §9

[3] = system: CYP3A
Procedure: as §1, §2
Sample preparations for the analysis of 1β-OH-DCA and ToDCA in human urine were performed using a previously described method but without acid solvolysis [15, 20]. In brief, an aliquot of 50 µL of a 0.1 M Tris HCL buffer (pH 5) containing a mixture of hydrolysis enzymes (100 U/mL choloylglycine hydrolase, 200 µL/mL β-glucuronidase/arylsulfatase, and 100 U/mL sulfatase) was added to 50 µL of urine, followed by adding 50 µL of an aqueous solution containing 1 µM of (D4)-DCA and (D4)-1β-OH-DCA as IS. The mixture was incubated overnight at 37 °C at a shaking speed of 500 rpm for enzymatic hydrolysis of glucuronides, sulfates, and amino acid conjugates. The reaction mixture was then quenched with a 300 µL ACN-MeOH (1:1, v/v) solution followed by centrifugation at 4000× g, 4 °C for 20 min. The supernatant was separated and diluted with an equal volume of water for ultra-high-performance liquid chromatography-high resolution mass spectrometry (UPLC-HRMS) analysis. […]
References containing 10 µM G-DCA, T-DCA, G-1β-OH-DCA, T-1β-OH-DCA, CDCA-24-G, and DCA-3-S were also prepared in stripped urine and subjected to enzymatic hydrolysis to monitor the efficiency of enzymatic deconjugation. […] Therefore, the concentrations of DCA-3-S were also determined in urine and combined with free DCA to represent the total concentration of DCA, i.e., ToDCA. […]

[4] = system: CYP3A; settings: human, in vivo
Procedure: as §1, §2, §3, §4, §5, §6, §7, §8, §9

[5] = system: CYP3A; settings: human, in vivo, iv
Procedure: as §1, §2, §3, §4, §5, §6, §7, §8, §9

[6] = system: CYP3A; settings: ITZ 200 mg od for 6 days; cited from earlier work
[7] = Oral MDZ (1.5 mg p.o.) plasma pharmacokinetics (MDZ and 1′-OH-MDZ) alone and after repeated inhibitor administration; settings: human, in vivo, po, 1.5 mg; for AUC: MDZ AUC0– (zero to infinity); for AUC / AUC(0-t) / Cmax / Tmax: MDZ alone; for AUC / AUC(0-t) / Cmax / half-life / Tmax: MDZ 1.5 mg p.o., geometric mean (90% CI); for AUC(0-t): MDZ AUClast; for Cmax: MDZ Cmax; for half-life: MDZ T1/2, MDZ alone; for Tmax: MDZ Tmax; for AUC(0-inf): Oral MDZ AUC0-inf, Baseline, MDZ 1.5 mg p.o. before inhibitor, geometric mean (range)
Procedure: as §1, §2, §3, §4, §5, §6, §7, §8, §9

[8] = Intravenous MDZ (1.0 mg i.v.) plasma pharmacokinetics (MDZ and 1′-OH-MDZ) alone and after repeated inhibitor administration; settings: human, in vivo, iv, 1 mg; for AUC: MDZ AUC0– (zero to infinity); for AUC(0-t): MDZ AUClast; for Cmax: MDZ Cmax; for half-life: MDZ T1/2, MDZ alone; for Tmax: MDZ Tmax; for AUC(0-inf): i.v. MDZ AUC0-inf
Procedure: as §1, §2, §3, §4, §5, §6, §7, §8, §9

[9] = repeated administration (APZ 1 mg od)
[10] = MDZ alone, MDZ 1 mg i.v., APZ arm (Table S1), geometric mean (90% CI)
[11] = MDZ alone, MDZ 1 mg i.v., FKZ arm (Table S2), geometric mean (90% CI)
[12] = MDZ alone, MDZ 1 mg i.v., ITZ arm (Table S3), geometric mean (90% CI)

## OCc1ncc2n1-c1ccc(Cl)cc1C(c1ccccc1F)=NC2 [1’-OH-MDZ, 1′-hydroxymidazolam]
[1]; APZ arm (Table S1)
  1’-OH-MDZ AUC0– (zero to infinity), MDZ alone: 10.56 (6.77–16.48) ng·h/mL
  1’-OH-MDZ AUClast, MDZ alone: 8.23 (6.15–11.02) ng·h/mL
  1’-OH-MDZ Cmax, MDZ alone: 2.60 (2.13–3.18) ng/mL
  1’-OH-MDZ T1/2, MDZ alone: 2.54 (1.26–5.09) h
  1’-OH-MDZ Tmax, MDZ alone: 0.77 (0.65–0.91) h
[1]; FKZ arm (Table S2)
  1’-OH-MDZ AUC0– (zero to infinity), MDZ alone: 6.73 (3.77 – 12.01) ng·h/ml
  1’-OH-MDZ AUClast, MDZ alone: 6.56 (3.6 – 11.94) ng·h/ml
  1’-OH-MDZ Cmax, MDZ alone: 2.81 (1.61 – 4.92) ng/ml
  1’-OH-MDZ T1/2, MDZ alone: 1.99 (1.32 – 3.0) h
  1’-OH-MDZ Tmax, MDZ alone: 0.83 (0.56 – 1.21) h
[1]; ITZ arm (Table S3)
  1’-OH-MDZ AUC0– (zero to infinity), MDZ alone: 4.57 (3.04 – 6.88) ng·h/ml
  1’-OH-MDZ AUClast, MDZ alone: 4.22 (2.8 -6.36) ng·h/ml
  1’-OH-MDZ Cmax, MDZ alone: 2.29 (1.64 – 3.19) ng/ml
  1’-OH-MDZ T1/2, MDZ alone: 1.34 (1.05 -1.7) h
  1’-OH-MDZ Tmax, MDZ alone: 0.71 (0.63 – 0.80) h
[2]; APZ arm (Table S1)
  1’-OH-MDZ AUC0– (zero to infinity), MDZ alone: 4.49 (2.12–9.50) ng·h/mL
  1’-OH-MDZ AUClast, MDZ alone: 2.54 (1.49–4.35) ng·h/ml
  1’-OH-MDZ Cmax, MDZ alone: 1.24 (1.02–1.50) ng/mL
[2]; FKZ arm (Table S2)
  1’-OH-MDZ AUC0– (zero to infinity), MDZ alone: 3.31 (1.92 – 5.72) ng·h/ml
  1’-OH-MDZ AUClast, MDZ alone: 2.56 (1.65 - 3.96) ng·h/ml
  1’-OH-MDZ Cmax, MDZ alone: 1.09 (0.76 – 1.56) ng/ml
  1’-OH-MDZ T1/2, MDZ alone: 2.30 (1.44 -3.65) h
  1’-OH-MDZ Tmax, MDZ alone: 0.79 (0.69 – 0.90) h
[2]; ITZ arm (Table S3)
  1’-OH-MDZ AUC0– (zero to infinity), MDZ alone: 2.26 (1.5 – 3.41) ng·h/ml
  1’-OH-MDZ AUClast, MDZ alone: 2.00 (1.41 – 3.01) ng·h/ml
  1’-OH-MDZ Cmax, MDZ alone: 1.09 (0.87 – 1.35) ng/ml
  1’-OH-MDZ T1/2, MDZ alone: 1.25 (0.8 – 1.95) h
  1’-OH-MDZ Tmax, MDZ alone: 0.79 (0.69 -0.90) h

## Cc1nnc2n1-c1ccc(Cl)cc1C(c1ccccc1)=NC2 [APZ, alprazolam]
[1]; [9]
  effect on MDZ PK parameters (in words): no significant effect
[3]; [9]
  effect on 1β-OH-DCA/ToDCA UMR (in words): No inhibition; also recorded: no significant effect

## OC(Cn1cncn1)(Cn1cncn1)c1ccc(F)cc1F [FKZ, fluconazole]
[4]; po
  1’-OH-MDZ T1/2, MDZ + inhibitor: 1.71 (1 – 2.89) h
  1’-OH-MDZ Tmax, MDZ + inhibitor: 0.83 (0.68 – 1) h
[5]
  1’-OH-MDZ T1/2, MDZ + inhibitor: 2.25 (1.56 – 3.23) h
  1’-OH-MDZ Tmax, MDZ + inhibitor: 0.70 (0.59 – 0.83) h

## CCC(C)n1ncn(-c2ccc(N3CCN(c4ccc(OCC5COC(Cn6cncn6)(c6ccc(Cl)cc6Cl)O5)cc4)CC3)cc2)c1=O (stereo not drawn) [ITZ, itraconazole]
[4]
  Oral MDZ CL, Treatment/Baseline (90%CI): 0.30 ** (0.18–0.47)
  decrease of oral MDZ CL from baseline: 70%
[5]
  i.v. MDZ CL, Treatment/Baseline (90%CI): 0.44 * (0.26–0.73)
[3]; after ITZ 100 mg od for 6 days
  time after completion of treatment at which 1β-OH-DCA/ToDCA ratio was fully restored to baseline: nine
[6]
  fold increase in oral MDZ AUC: 6.6 fold
  reduced oral MDZ clearance: 85%

## Cc1ncc2n1-c1ccc(Cl)cc1C(c1ccccc1F)=NC2 [MDZ, midazolam]
[1]; APZ arm, MDZ 1.5 mg p.o. before inhibitor, geometric mean (range)
  Oral MDZ CL, Baseline: 59.1 (28.0–220.5) L/h
[1]; FKZ arm, MDZ 1.5 mg p.o. before inhibitor, geometric mean (range)
  Oral MDZ CL, Baseline: 59.8 (17.0–135.9) L/h
[1]; ITZ arm, MDZ 1.5 mg p.o. before inhibitor, geometric mean (range)
  Oral MDZ CL, Baseline: 126 (46.7–648.8) L/h
[1]; APZ arm (Table S1)
  MDZ CL, MDZ alone: 137.34 (101–186) L/h
[1]; FKZ arm (Table S2)
  MDZ CL, MDZ alone: 77.41 (56.44 – 106.19) L/h
[1]; ITZ arm (Table S3)
  MDZ CL, MDZ alone: 155.58 L/h
[1]; human, in vivo, po, 1.5 mg, Oral MDZ AUC0-inf, Baseline, ITZ arm, MDZ 1.5 mg p.o. before inhibitor, geometric mean (range)
  AUC(0-inf): 0.0108 µg·h/mL
[7]; APZ arm (Table S1)
  AUC: 0.0106 µg·h/mL
  AUC(0-t): 0.0104 µg·h/mL
  Cmax: 0.00413 µg/mL
  half-life: 1.63 h
  Tmax: 0.76 h
[7]; FKZ arm (Table S2)
  AUC: 0.0194 µg·h/mL
  AUC(0-t): 0.0185 µg·h/mL
  Cmax: 0.00618 µg/mL
  half-life: 2.26 h
  Tmax: 0.79 h
[7]; ITZ arm (Table S3)
  AUC: 0.00964 µg·h/mL
  AUC(0-t): 0.00861 µg·h/mL
  Cmax: 0.00486 µg/mL
  half-life: 1.43 h
  Tmax: 0.63 h
[7]; APZ arm
  AUC(0-inf): 0.0106 µg·h/mL
[7]; FKZ arm
  AUC(0-inf): 0.0227 µg·h/mL
[2]; human, in vivo, iv, 1 mg, i.v. MDZ AUC0-inf, Baseline, ITZ arm, MDZ 1.0 mg i.v. before inhibitor, geometric mean (range)
  AUC(0-inf): 0.0121 µg·h/mL
[2]; human, in vivo, iv, 1 mg, i.v. MDZ CL, Baseline, ITZ arm, MDZ 1.0 mg i.v. before inhibitor, geometric mean (range)
  clearance: 1380 mL/min
[8]; [10]
  AUC: 0.0168 µg·h/mL
  AUC(0-t): 0.0166 µg·h/mL
  Cmax: 0.026 µg/mL
  Tmax: 0.29 h
[8]; [11]
  AUC: 0.0124 µg·h/mL
  AUC(0-t): 0.012 µg·h/mL
  Cmax: 0.0226 µg/mL
[8]; [12]
  AUC: 0.0135 µg·h/mL
  AUC(0-t): 0.0129 µg·h/mL
  Cmax: 0.025 µg/mL
  Tmax: 0.28 h
[8]; MDZ CL, MDZ alone, MDZ 1 mg i.v., APZ arm (Table S1), geometric mean (90% CI)
  clearance: 998 mL/min
[8]; MDZ CL, MDZ alone, MDZ 1 mg i.v., FKZ arm (Table S2), geometric mean (90% CI)
  clearance: 1350 mL/min
[8]; MDZ CL, MDZ alone, MDZ 1 mg i.v., ITZ arm (Table S3), geometric mean (90% CI)
  clearance: 1230 mL/min
[8]; MDZ 1 mg i.v., APZ arm (Table S1), geometric mean (90% CI)
  half-life: 2.06 h
[8]; MDZ 1 mg i.v., FKZ arm (Table S2), geometric mean (90% CI)
  half-life: 1.55 h
[8]; MDZ 1 mg i.v., ITZ arm (Table S3), geometric mean (90% CI)
  half-life: 2.32 h
[8]; Baseline, APZ arm, MDZ 1.0 mg i.v. before inhibitor, geometric mean (range)
  AUC(0-inf): 0.0168 µg·h/mL
[8]; Baseline, FKZ arm, MDZ 1.0 mg i.v. before inhibitor, geometric mean (range)
  AUC(0-inf): 0.0124 µg·h/mL
[8]; i.v. MDZ CL, Baseline, APZ arm, MDZ 1.0 mg i.v. before inhibitor, geometric mean (range)
  clearance: 993 mL/min
[8]; i.v. MDZ CL, Baseline, FKZ arm, MDZ 1.0 mg i.v. before inhibitor, geometric mean (range)
  clearance: 1350 mL/min
